In patent US20160022684A1, “BET INHIBITOR AND BRUTON'S TYROSINE KINASE INHIBITOR COMBINATIONS” (Pharmacyclics LLC, priority 2014, published 2016):

Legend:
[1] = system: TMD8; assay: Combined drug treatment cell viability (CellTiter-Glo), ibrutinib with BET inhibitors, TMD8; format: cell-based; settings: JQ1 20 nM, 3 days
Method: (§1) The DLBCL cell lines used during the experiments included TMD8, OCI-LY3, OCI-LY10, U-2932 and SU-DHL-2. DLBCL cells at either 1×10^4 cells or 2×10^4 cells were plated onto each well of a 96-W plate (Table 1). […] The 96-W plate was then incubated for 3 days. Cell viability was examined using a CellTiter-Glo assay. A 40 μL of CellTiter-Glo reagent was added directly into each well of the 96-W plate. The plate was then shaken on a Shaker ([…]) at speed 5 for 10-20 min at room temperature. Next, about 100 μL of the mixed medium was transferred to a white, non-transparent, flat bottom 96-W plate for assaying. […] Measurements were taken at room temperature. CellTiter-Glow reagents were thawed prior to use. Cells pre-plated onto a second 96-W plate and incubated at room temperature for 30 minutes were used for calibration purposes. […] CI is a quantitative description of the interaction property of the combination of two drugs.

[2] = system: YAC-1 (target cells); assay: NK cell cytotoxicity of splenocytes from treated mice (A20 model); format: in vivo; settings: combination of JQ1 with ibrutinib, splenocytes after 14 days of treatment, co-cultured with YAC-1 for 4 hours
Method: To determine the drug effect on NK cell cytotoxicity, splenocytes (effector cells) were harvested from mice after 14 days of treatment. The splenocytes were co-cultured with YAC-1 (target cells) for 4 hours. The percentage of target cell death (PI-positive cells) was analyzed by flow cytometry.

[3] = system: SU-DHL-2; assay: Combined drug treatment cell viability (CellTiter-Glo), ibrutinib with BET inhibitors, SU-DHL-2; format: cell-based; settings: JQ1 100 nM, 3 days
Method: as §1

[4] = system: OCI-LY10; assay: Combined drug treatment cell viability (CellTiter-Glo), ibrutinib with BET inhibitors, OCI-LY10; format: cell-based; settings: OCI-LY-10, JQ1 1 uM, 3 days
Method: as §1

[5] = system: OCI-LY3; assay: Combined drug treatment cell viability (CellTiter-Glo), ibrutinib with BET inhibitors, OCI-LY3; format: cell-based; settings: OCI-LY-3, JQ1 1 uM, 3 days
Method: as §1

[6] = system: U-2932; assay: Combined drug treatment cell viability (CellTiter-Glo), ibrutinib with BET inhibitors, U-2932; format: cell-based; settings: U2932, JQ1 20 nM, 3 days
Method: as §1

[7] = ibrutinib 0 nM (BET inhibitor alone): I-BET151 5 uM, OTX015 1 uM
[8] = ibrutinib 0.0256 nM with I-BET151 5 uM, OTX015 1 uM or medium alone (row)
[9] = ibrutinib 0.64 nM with I-BET151 5 uM, OTX015 1 uM or medium alone (row)
[10] = ibrutinib 3.2 nM with I-BET151 5 uM, OTX015 1 uM or medium alone (row)
[11] = ibrutinib 16 nM with I-BET151 5 uM, OTX015 1 uM or medium alone (row)
[12] = ibrutinib 80 nM with I-BET151 5 uM, OTX015 1 uM or medium alone (row)
[13] = ibrutinib 400 nM with I-BET151 5 uM, OTX015 1 uM or medium alone (row)
[14] = ibrutinib 2000 nM with I-BET151 5 uM, OTX015 1 uM or medium alone (row)
[15] = ibrutinib 10000 nM with I-BET151 5 uM, OTX015 1 uM or medium alone (row)
[16] = ibrutinib […] with I-BET151 5 uM, OTX015 1 uM or medium alone (row)

## Cc1sc2c(c1C)C(c1ccc(Cl)cc1)=N[C@@H](CC(=O)OC(C)(C)C)c1nnc(C)n1-2 [JQ1]
[1]; ibrutinib 0 nM (BET inhibitor alone): I-BET151 200 nM, OTX015 100 nM
  luminescent signals: 59694.27
[1]; ibrutinib 0.0256 nM with I-BET151 200 nM, OTX015 100 nM or medium alone (row)
  luminescent signals: 18249.87
[1]; ibrutinib 0.64 nM with I-BET151 200 nM, OTX015 100 nM or medium alone (row)
  luminescent signals: 16842.39
[1]; ibrutinib 3.2 nM with I-BET151 200 nM, OTX015 100 nM or medium alone (row)
  luminescent signals: 16468.11
[1]; ibrutinib 16 nM with I-BET151 200 nM, OTX015 100 nM or medium alone (row)
  luminescent signals: 16312.6
[1]; ibrutinib 80 nM with I-BET151 200 nM, OTX015 100 nM or medium alone (row)
  luminescent signals: 15297.84
[1]; ibrutinib 400 nM with I-BET151 200 nM, OTX015 100 nM or medium alone (row)
  luminescent signals: 15282.03
[1]; ibrutinib 2000 nM with I-BET151 200 nM, OTX015 100 nM or medium alone (row)
  luminescent signals: 15571.96
[1]; ibrutinib 10000 nM with I-BET151 200 nM, OTX015 100 nM or medium alone (row)
  luminescent signals: 9818.137
[1]; ibrutinib […] with I-BET151 200 nM, OTX015 100 nM or medium alone (row)
  luminescent signals: 18911.45
[2]
  NK cytotoxicity (percentage of target cell death, PI-positive cells): enhanced NK cytotoxicity
[3]; ibrutinib 0 nM (BET inhibitor alone): I-BET151 2 uM, OTX015 1 uM (Table 2)
  luminescent signals: 17739.9
[3]; ibrutinib 0.0256 nM with I-BET151 2 uM, OTX015 1 uM (Table 2) or medium alone (row)
  luminescent signals: 22662.83
[3]; ibrutinib 0.64 nM with I-BET151 2 uM, OTX015 1 uM (Table 2) or medium alone (row)
  luminescent signals: 19308.19
[3]; ibrutinib 3.2 nM with I-BET151 2 uM, OTX015 1 uM (Table 2) or medium alone (row)
  luminescent signals: 25589.27
[3]; ibrutinib 16 nM with I-BET151 2 uM, OTX015 1 uM (Table 2) or medium alone (row)
  luminescent signals: 20485.07
[3]; ibrutinib 80 nM with I-BET151 2 uM, OTX015 1 uM (Table 2) or medium alone (row)
  luminescent signals: 19823.08
[3]; ibrutinib 400 nM with I-BET151 2 uM, OTX015 1 uM (Table 2) or medium alone (row)
  luminescent signals: 23679.47
[3]; ibrutinib 2000 nM with I-BET151 2 uM, OTX015 1 uM (Table 2) or medium alone (row)
  luminescent signals: 29411.5
[3]; ibrutinib 10000 nM with I-BET151 2 uM, OTX015 1 uM (Table 2) or medium alone (row)
  luminescent signals: 3706.648
[3]; ibrutinib […] with I-BET151 2 uM, OTX015 1 uM (Table 2) or medium alone (row)
  luminescent signals: 19174.22
[4]; [7]
  luminescent signals: 41458.59
[4]; [8]
  luminescent signals: 45492.43
[4]; [9]
  luminescent signals: 52166.4
[4]; [10]
  luminescent signals: 39783.52
[4]; [11]
  luminescent signals: 26164.72
[4]; [12]
  luminescent signals: 24844.65
[4]; [13]
  luminescent signals: 24502.8
[4]; [14]
  luminescent signals: 24579.06
[4]; [15]
  luminescent signals: 25346.91
[4]; [16]
  luminescent signals: 47932.71
[5]; [7]
  luminescent signals: 20530.28
[5]; [8]
  luminescent signals: 21973.49
[5]; [9]
  luminescent signals: 23078.2
[5]; [10]
  luminescent signals: 22419.57
[5]; [11]
  luminescent signals: 21821.3
[5]; [12]
  luminescent signals: 21944.63
[5]; [13]
  luminescent signals: 22621.62
[5]; [14]
  luminescent signals: 24841.54
[5]; [15]
  luminescent signals: 21414.57
[5]; [16]
  luminescent signals: 22582.26
[6]; ibrutinib 0 nM (BET inhibitor alone): I-BET151 200 nM, OTX015 50 nM (Table 2)
  luminescent signals: 55050.2
[6]; ibrutinib 0.0256 nM with I-BET151 200 nM, OTX015 50 nM (Table 2) or medium alone (row)
  luminescent signals: 52636.54
[6]; ibrutinib 0.64 nM with I-BET151 200 nM, OTX015 50 nM (Table 2) or medium alone (row)
  luminescent signals: 46610.32
[6]; ibrutinib 3.2 nM with I-BET151 200 nM, OTX015 50 nM (Table 2) or medium alone (row)
  luminescent signals: 47334.95
[6]; ibrutinib 16 nM with I-BET151 200 nM, OTX015 50 nM (Table 2) or medium alone (row)
  luminescent signals: 46417.97
[6]; ibrutinib 80 nM with I-BET151 200 nM, OTX015 50 nM (Table 2) or medium alone (row)
  luminescent signals: 49232.14
[6]; ibrutinib 400 nM with I-BET151 200 nM, OTX015 50 nM (Table 2) or medium alone (row)
  luminescent signals: 44892.31
[6]; ibrutinib 2000 nM with I-BET151 200 nM, OTX015 50 nM (Table 2) or medium alone (row)
  luminescent signals: 44099.18
[6]; ibrutinib 10000 nM with I-BET151 200 nM, OTX015 50 nM (Table 2) or medium alone (row)
  luminescent signals: 33551.32
[6]; ibrutinib […] with I-BET151 200 nM, OTX015 50 nM (Table 2) or medium alone (row)
  luminescent signals: 54454.69
